Data published in patent US20240287076A1, “COMPOUNDS FOR TARGETING DEGRADATION OF BRUTON'S TYROSINE KINASE” (BIOGEN MA INC., priority 2021, published 2024).

molecular target: T1, BTK (Homo sapiens, UniProt Q06187); assay: BTK degradation assay using the HiBiT Method (Nano-Glo HiBiT Lytic Assay, GM01501.3 cells); format: cell-based; conditions: HiBiT Degradation on GM01501.3 BTK @ 6 hours
T1 construct: The GM01501.3 cell line endogenously expresses BTK with a HiBiT fusion tag via CRISPR knock-in at its C-terminal region; endogenous in cells; host or cells: GM01501.3 (GM01501 cells engineered by CRISPR knock-in of HiBiT at the BTK locus)
Experimental: Selected compounds were tested in a BTK degradation assay using the HiBiT Method. Park Memorial Institute (RPM1) 1640 Medium with phenol red, L-Glutamine, Sodium Pyruvate, and fetal bovine serum (FBS) were purchased from Gibco (Grand Island, NY, USA). Nano-Glo® HiBiT Lytic Assay System was purchased from Promega (Madison, WI, USA). GM01501 cells were obtained from the NIGMS Human Genetic Cell Repository at the Coriell Institute for Medical Research. The GM01501.3 cell line endogenously expresses BTK with a HiBiT fusion tag via CRISPR knock-in at its C-terminal region. It was engineered by electroporation with the Neon Transfection System (Themo Fisher Scientific), according to manufacturer indications. Electroporation conditions: 1 pulse of 1,350 V for 30 ms for 0.5×10_6 cells. Cell culture flasks and 384-well microplates were acquired from VWR (Radnor, PA, USA). BTK degradation was evaluated by quantification of luminescent signal using Nano-Glo® HiBiT Lytic Assay kit. Test compounds were added to the 384-well plate from a top concentration of 10 μM with 11 points, half log titration in duplicates. GM01501.3 cells were added into 384-well plates at a cell density of 10,000 cells per well in a total volume of 30 μl. The plates were kept at 37° C. with 5% CO2 for 6 hours. Negative control wells included cells treated with DMSO only and positive control wells included only growing media, without Nano-Glo® HiBiT Lytic reagent. After a 6-hour incubation, Nano-Glo® HiBiT Lytic Assay reagent was added to the cells following manufacturer indications. Luminescence was acquired on EnVision™ Multilabel Reader (PerkinElmer, Santa Clara, CA, USA). […] “++++” represents a DC50 value of less than 100 nM. “+++” represents a DC50 value of 100 nM-500 nM. “++” represents a DC50 value of 500 nM-1000 nM. “+” represents a DC50 value of greater than 1000 nM.

T1 sequence (Q06187 whole entry, the tested form may be a part): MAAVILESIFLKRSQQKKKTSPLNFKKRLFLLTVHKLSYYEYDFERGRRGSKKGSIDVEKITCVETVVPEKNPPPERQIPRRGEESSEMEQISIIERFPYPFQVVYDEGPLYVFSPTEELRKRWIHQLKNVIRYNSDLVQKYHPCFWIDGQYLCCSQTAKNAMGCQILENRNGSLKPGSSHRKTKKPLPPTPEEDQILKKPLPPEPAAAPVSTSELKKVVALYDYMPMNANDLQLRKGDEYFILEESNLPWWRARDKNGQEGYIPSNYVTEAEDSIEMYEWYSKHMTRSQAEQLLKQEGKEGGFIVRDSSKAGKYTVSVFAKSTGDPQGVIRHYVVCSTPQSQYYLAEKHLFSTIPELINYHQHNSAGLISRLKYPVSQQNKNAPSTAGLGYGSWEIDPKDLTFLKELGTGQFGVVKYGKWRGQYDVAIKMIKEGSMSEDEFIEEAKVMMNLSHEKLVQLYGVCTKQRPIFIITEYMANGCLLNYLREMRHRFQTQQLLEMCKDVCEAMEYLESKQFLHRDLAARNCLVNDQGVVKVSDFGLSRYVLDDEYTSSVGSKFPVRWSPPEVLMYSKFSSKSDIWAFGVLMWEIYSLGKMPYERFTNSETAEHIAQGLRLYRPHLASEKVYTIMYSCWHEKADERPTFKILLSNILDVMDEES

Compound | DC50 [nM]
Cc1cc(-c2ncnn3cc(-c4ccc(CN5CCN(c6ccc(NC7CCC(=O)NC7=O)cc6)CC5)cc4)cc23)ccc1CNC(=O)c1noc(C(C)(C)C)n1 (stereo not drawn) [Example 29, 5-tert-butyl-N-[[4-[6-[4-[[4-[4-[(2,6-dioxo-3-piperidyl)amino]phenyl]piperazin-1-yl]methyl]phenyl]pyrrolo[2,1-f][1,2,4]triazin-4-yl]-2-methyl-phenyl]methyl]-1,2,4-oxadiazole-3-carboxamide] | < 100
Cc1cc(-c2ncnn3cc(-c4ccc(CN5CCC(c6cnc(NC7CCC(=O)NC7=O)nc6)CC5)cc4)cc23)ccc1CNC(=O)c1noc(C(C)(C)C)n1 (stereo not drawn) [Example 30, 5-tert-butyl-N-[[4-[6-[4-[[4-[2-[(2,6-dioxo-3-piperidyl)amino]pyrimidin-5-yl]-1-piperidyl]methyl]phenyl]pyrrolo[2,1-f][1,2,4]triazin-4-yl]-2-methyl-phenyl]methyl]-1,2,4-oxadiazole-3-carboxamide] | < 100
Cc1cc(-c2ncnn3cc(-c4ccc(CN5CCC(c6ccc(NC7CCC(=O)NC7=O)nn6)CC5)cc4)cc23)ccc1CNC(=O)c1noc(C(C)(C)C)n1 (stereo not drawn) [Example 31, 5-tert-butyl-N-[[4-[6-[4-[[4-[6-[(2,6-dioxo-3-piperidyl)amino]pyridazin-3-yl]-1-piperidyl]methyl]phenyl]pyrrolo[2,1-f][1,2,4]triazin-4-yl]-2-methyl-phenyl]methyl]-1,2,4-oxadiazole-3-carboxamide] | < 100
CC(C)(C)c1nc(C(=O)NCc2ccc(-c3ncnn4cc(-c5ccc(CN6CCC(c7ccc(NC8CCC(=O)NC8=O)nc7)CC6)cc5)cc34)cc2F)no1 (stereo not drawn) [Example 32, 5-tert-butyl-N-[[4-[6-[4-[[4-[6-[(2,6-dioxo-3-piperidyl)amino]-3-pyridyl]-1-piperidyl]methyl]phenyl]pyrrolo[2,1-f][1,2,4]triazin-4-yl]-2-fluoro-phenyl]methyl]-1,2,4-oxadiazole-3-carboxamide] | < 100
Cn1nc(N2CCC(=O)NC2=O)c2ccc(C3CCN(Cc4ccc(-c5cc6c(-c7ccc(CNC(=O)c8noc(C(C)(C)C)n8)c(F)c7)ncnn6c5)cc4F)CC3)cc21 [Example 33, 5-tert-butyl-N-[[4-[6-[4-[[4-[3-(2,4-dioxohexahydropyrimidin-1-yl)-1-methyl-indazol-6-yl]-1-piperidyl]methyl]-3-fluoro-phenyl]pyrrolo[2,1-f][1,2,4]triazin-4-yl]-2-fluoro-phenyl]methyl]-1,2,4-oxadiazole-3-carboxamide] | < 100
CN(CCn1ccc(NC2CCC(=O)NC2=O)n1)Cc1ccc(-c2cc3c(-c4ccc(CNC(=O)c5noc(C(C)(C)C)n5)c(F)c4)ncnn3c2)cc1F (stereo not drawn) [Example 34, 5-tert-butyl-N-[[4-[6-[4-[[2-[3-[(2,6-dioxo-3-piperidyl)amino]pyrazol-1-yl]ethyl-methyl-amino]methyl]-3-fluoro-phenyl]pyrrolo[2,1-f][1,2,4]triazin-4-yl]-2-fluoro-phenyl]methyl]-1,2,4-oxadiazole-3-carboxamide] | < 100
CC(C)(C)c1nc(C(=O)NCc2ccc(-c3ncnn4cc(-c5ccc(CN6CCN(c7ccc(C8CCC(=O)NC8=O)cn7)CC6)cc5)cc34)cc2F)no1 (stereo not drawn) [Example 36, 5-tert-butyl-N-[[4-[6-[4-[[4-[5-(2,6-dioxo-3-piperidyl)-2-pyridyl]piperazin-1-yl]methyl]phenyl]pyrrolo[2,1-f][1,2,4]triazin-4-yl]-2-fluoro-phenyl]methyl]-1,2,4-oxadiazole-3-carboxamide] | < 100
CN(Cc1ccc(-c2ncnn3cc(-c4ccc(CN5CCC(c6ccc7c(N8CCC(=O)NC8=O)nn(C)c7c6)CC5)cc4)cc23)cc1F)C(=O)c1noc(C(C)(C)C)n1 [Example 37, 5-tert-butyl-N-[[4-[6-[4-[[4-[3-(2,4-dioxohexahydropyrimidin-1-yl)-1-methyl-indazol-6-yl]-1-piperidyl]methyl]phenyl]pyrrolo[2,1-f][1,2,4]triazin-4-yl]-2-fluoro-phenyl]methyl]-N-methyl-1,2,4-oxadiazole-3-carboxamide] | 100 to 500
CC(C)(C)c1nc(C(=O)NCc2ccc(-c3ncnn4cc(-c5ccc(CN6CC[C@@H](c7ccc(NC8CCC(=O)NC8=O)cc7)CC67CC7)cc5)cc34)cc2F)no1 (stereo partly drawn) [Example 38, 5-tert-butyl-N-[[4-[6-[4-[[(7R)-7-[4-[(2,6-dioxo-3-piperidyl)amino]phenyl]-4-azaspiro[2.5]octan-4-yl]methyl]phenyl]pyrrolo[2,1-f][1,2,4]triazin-4-yl]-2-fluoro-phenyl]methyl]-1,2,4-oxadiazole-3-carboxamide] | < 100
CC(C)(C)c1nc(C(=O)NCc2ccc(-c3ncnn4cc(-c5ccc(CN6CC[C@H](c7ccc(NC8CCC(=O)NC8=O)cc7)CC67CC7)cc5)cc34)cc2F)no1 (stereo partly drawn) [Example 39, 5-tert-butyl-N-[[4-[6-[4-[[(7S)-7-[4-[(2,6-dioxo-3-piperidyl)amino]phenyl]-4-azaspiro[2.5]octan-4-yl]methyl]phenyl]pyrrolo[2,1-f][1,2,4]triazin-4-yl]-2-fluoro-phenyl]methyl]-1,2,4-oxadiazole-3-carboxamide] | 100 to 500
CC(C)(C)c1nc(C(=O)NCc2ccc(-c3ncnn4cc(-c5ccc(CN6CCC(c7ccc(C8CCC(=O)NC8=O)cc7)CC6)cc5)cc34)cc2)no1 (stereo not drawn) [Example 40, 5-tert-butyl-N-[[4-[6-[4-[[4-[4-(2,6-dioxo-3-piperidyl)phenyl]-1-piperidyl]methyl]phenyl]pyrrolo[2,1-f][1,2,4]triazin-4-yl]phenyl]methyl]-1,2,4-oxadiazole-3-carboxamide] | < 100
CC(C)(C)c1nc(C(=O)NCc2ccc(-c3ncnn4cc(-c5ccc(CN6CCC(c7ccc(NC8CCC(=O)NC8=O)cn7)CC6)cc5)cc34)cc2F)no1 (stereo not drawn) [Example 45, 5-tert-butyl-N-[[4-[6-[4-[[4-[5-[(2,6-dioxo-3-piperidyl)amino]-2-pyridyl]-1-piperidyl]methyl]phenyl]pyrrolo[2,1-f][1,2,4]triazin-4-yl]-2-fluoro-phenyl]methyl]-1,2,4-oxadiazole-3-carboxamide] | < 100

The next lines start with the values.

DC50 [nM] | Compound
< 100 | CC(C)(C)c1nc(C(=O)NCc2ccc(-c3ncnn4cc(-c5ccc(CN6CCC(c7ccc(NC8CCC(=O)NC8=O)cc7)CC6)cc5)cc34)cc2)no1 (stereo not drawn) [Example 41, 5-tert-butyl-N-[[4-[6-[4-[[4-[4-[(2,6-dioxo-3-piperidyl)amino]phenyl]-1-piperidyl]methyl]phenyl]pyrrolo[2,1-f][1,2,4]triazin-4-yl]phenyl]methyl]-1,2,4-oxadiazole-3-carboxamide]
< 100 | CC(C)(C)c1nc(C(=O)NCc2ccc(-c3ncnn4cc(-c5ccc(CN6CCC(c7ccc(C8CCC(=O)NC8=O)cc7)CC6)cc5)cc34)cc2F)no1 (stereo not drawn) [Example 42, 5-tert-butyl-N-[[4-[6-[4-[[4-[4-(2,6-dioxo-3-piperidyl)phenyl]-1-piperidyl]methyl]phenyl]pyrrolo[2,1-f][1,2,4]triazin-4-yl]-2-fluoro-phenyl]methyl]-1,2,4-oxadiazole-3-carboxamide]
< 100 | COc1cc(-c2ncnn3cc(-c4ccc(CN5CCC(c6ccc(C7CCC(=O)NC7=O)cc6)CC5)cc4)cc23)ccc1CNC(=O)c1noc(C(C)(C)C)n1 (stereo not drawn) [Example 43, 5-tert-butyl-N-[[4-[6-[4-[[4-[4-(2,6-dioxo-3-piperidyl)phenyl]-1-piperidyl]methyl]phenyl]pyrrolo[2,1-f][1,2,4]triazin-4-yl]-2-methoxy-phenyl]methyl]-1,2,4-oxadiazole-3-carboxamide]
< 100 | CC(C)(C)c1nc(C(=O)NCc2ccc(-c3ncnn4cc(-c5ccc(CN6CCC(c7ccc(NC8CCC(=O)NC8=O)cc7)CC6)cc5)cc34)cc2F)no1 (stereo not drawn) [Example 44, 5-tert-butyl-N-[[4-[6-[4-[[4-[4-[(2,6-dioxo-3-piperidyl)amino]phenyl]-1-piperidyl]methyl]phenyl]pyrrolo[2,1-f][1,2,4]triazin-4-yl]-2-fluoro-phenyl]methyl]-1,2,4-oxadiazole-3-carboxamide]
< 100 | CC(C)(C)c1nc(C(=O)NCc2ccc(-c3ncnn4cc(-c5ccc(CN6CCC(c7ccc(C8CCC(=O)NC8=O)cc7)CC6)cc5)cc34)cc2Cl)no1 (stereo not drawn) [Example 46, 5-tert-butyl-N-[[2-chloro-4-[6-[4-[[4-[4-(2,6-dioxo-3-piperidyl)phenyl]-1-piperidyl]methyl]phenyl]pyrrolo[2,1-f][1,2,4]triazin-4-yl]phenyl]methyl]-1,2,4-oxadiazole-3-carboxamide]
< 100 | COc1cc(-c2ncnn3cc(-c4ccc(CN5CCC(c6ccc(NC7CCC(=O)NC7=O)cc6)CC5)cc4)cc23)ccc1CNC(=O)c1noc(C(C)(C)C)n1 (stereo not drawn) [Example 47, 5-tert-butyl-N-[[4-[6-[4-[[4-[4-[(2,6-dioxo-3-piperidyl)amino]phenyl]-1-piperidyl]methyl]phenyl]pyrrolo[2,1-f][1,2,4]triazin-4-yl]-2-methoxy-phenyl]methyl]-1,2,4-oxadiazole-3-carboxamide]
